The values that follow are results of earlier work, collected in patent publication US20080305171A1, “PYRROLOPYRAZINE, FORMULATIONS, METHODS OF MANUFACTURE, AND METHODS OF USE THERE” (priority 2007, published 2008).

For this series the following is noted: ethanol:phosphate buffer solution, increasing temperature and pH.

Take `CN1CCN(C(=O)OC2c3nccnc3C(=O)N2c2ccc(Cl)cn2)CC1` (racemic) [COMPOUND II, 6-(5-chloro-2-pyridyl)-5-[(4-methyl-1-piperazinyl)carbonyloxy]-7-oxo-6,7-dihydro-5H-pyrrolo[3,4-b]pyrazine]: the “chemical and isomeric stability in solution” value is “both degrades and racemizes”.
